# Source: PubChem BioAssay (NCI)
#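 Grown in 96-well plates, cells were treated for 48 hours with each compound at five concentrations. Insufficient inhibition: endpoint recorded as highest concentration tested. GI50 marks 50% less growth. TGI: concentration producing complete growth inhibition.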
# How the values were obtained:
# Test in all cases: growth of human tumour cells (NCI), 48 h
# 786-0 renal = test system: 786-0 renal
# CCRF-CEM leukemia = test system: CCRF-CEM leukemia
# DU-145 prostate = test system: DU-145 prostate
# EKVX NSCLC = test system: EKVX NSCLC
# HS 578T breast = test system: HS 578T breast
# M14 melanoma = test system: M14 melanoma
# NCI-H226 lung = test system: NCI-H226 lung
# OVCAR-4 ovarian = test system: OVCAR-4 ovarian
# RPMI-8226 leukemia = test system: RPMI-8226 leukemia
# SK-MEL-28 melanoma = test system: SK-MEL-28 melanoma
# SNB-19 CNS = test system: SNB-19 CNS
# SNB-75 CNS = test system: SNB-75 CNS
# T-47D breast = test system: T-47D breast
# UACC-62 melanoma = test system: UACC-62 melanoma
Structure (SMILES),TGI (786-0 renal) [µM],TGI (CCRF-CEM leukemia) [µM],TGI (DU-145 prostate) [µM],TGI (EKVX NSCLC) [µM],TGI (HS 578T breast) [µM],TGI (M14 melanoma) [µM],TGI (NCI-H226 lung) [µM],TGI (OVCAR-4 ovarian) [µM],TGI (RPMI-8226 leukemia) [µM],TGI (SK-MEL-28 melanoma) [µM],TGI (SNB-19 CNS) [µM],TGI (SNB-75 CNS) [µM],TGI (T-47D breast) [µM],TGI (UACC-62 melanoma) [µM],GI50 (SNB-75 CNS) [µM]
COC(=O)C1CCC(=O)N1C(c1ccc2c(c1)OCO2)c1ccc2c(c1)OCO2 (stereo unspecified),> 100,> 100,> 100,> 100,> 100,> 100,> 100,> 100,> 100,> 100,> 100,> 100,> 100,> 100,
Cn1cnc([N+](=O)[O-])c1Sc1nc(N)nc2c1ncn2Cc1ccccc1,68.2,> 100,> 100,42.3,86.5,69,60.2,> 100,72.5,42.5,> 100,> 100,40.9,31.4,
O=C1NN(c2ccccc2)C(=O)C2C3c4ccccc4C(c4ccccc43)C12 (stereo unspecified),> 100,> 100,> 100,> 100,> 100,> 100,> 100,> 100,> 100,> 100,> 100,> 100,> 100,> 100,
CC(=O)OCc1cn(S(=O)(=O)c2ccc(C)cc2)cn1,> 100,> 100,> 100,> 100,> 100,> 100,> 100,> 100,> 100,> 100,> 100,> 100,> 100,> 100,
O=C(/C(=C/c1cccs1)c1ccccc1)c1ccccc1,> 100,> 100,> 100,> 100,> 100,> 100,> 100,> 100,> 100,> 100,> 100,> 100,> 100,> 100,
O=C(N/C(=C\c1ccccc1)C1Nc2ccccc2C(=O)O1)c1ccccc1 (stereo unspecified),59,46.5,> 100,> 100,99.7,52.1,> 100,> 100,63.2,53.2,> 100,> 100,> 100,> 100,
Cc1cccc(NC(=S)N/N=C(/c2ccccc2)c2ccccn2)c1,14.6,1.48,9.34,4.08,76.1,2.58,6,17.2,> 7.74,40.5,20,22.1,19.6,15.5,
CCOP(=O)(OCC)/C(C#N)=C/c1c(C)[nH]c2ccccc12,> 100,> 100,> 100,> 100,> 100,> 100,> 100,> 100,> 100,> 100,> 100,> 100,> 100,> 100,
CP(C)(=S)P(C)(C)=S,> 100,> 100,> 100,> 100,> 100,> 100,> 100,> 100,> 100,> 100,> 100,> 100,> 100,> 100,
CCOC(=O)C1(Cc2ccccc2)Cc2ccccc2C1=O (stereo unspecified),> 100,95.5,> 100,97.8,> 100,40.9,58.6,> 100,60.8,92.5,,> 100,88.3,81.7,
Cc1nc(C)c(N2CCN(C#N)CC2)c(=O)[nH]1,> 100,> 100,> 100,> 100,> 100,> 100,> 100,> 100,> 100,> 100,> 100,> 100,> 100,> 100,
CC(C)=CCC[C@H](C)[C@H]1CC[C@@H](C)c2cc(O)c(C)cc21,33.3,68,37.9,33.4,37.8,33.9,33.3,31.5,56.2,36.8,31.6,38.6,36.8,27.9,
O=C1OC(c2ccccc2)N/C1=C\c1ccc2c(c1)OCO2 (stereo unspecified),> 100,99.6,> 100,> 100,> 100,> 100,> 100,> 88,59.9,> 100,> 100,> 100,> 100,> 100,
CC1(C)O[C@@H]2[C@@H]3OC(=O)C[C@@H]3[C@@H](COCc3ccccc3)[C@@H]2O1,> 100,> 100,> 100,> 100,> 100,> 100,> 100,> 100,> 100,> 100,> 100,> 100,> 100,> 100,
COc1cc(OC)nc(Nc2c(C#N)c3nc4ccccc4n3c3ccccc23)n1,43.6,> 100,> 100,> 100,> 100,> 100,> 100,78.7,> 100,> 100,86.2,37.6,> 100,> 100,
O=C(O)c1cc(Sc2ccc([N+](=O)[O-])c(C(=O)O)c2)ccc1[N+](=O)[O-],> 100,> 100,> 100,> 100,> 100,> 100,> 100,> 100,> 100,> 100,> 100,> 100,> 100,> 100,> 100
CC(NC(=O)C(N)CC(=O)O)NC(=O)N1CCCC1 (stereo unspecified),> 100,> 100,> 100,> 100,> 100,> 100,> 100,> 100,> 100,> 100,> 100,> 100,> 100,> 100,
OCSc1nn(CO)c(=S)s1,58.9,55.1,57.6,89.3,42.4,38.2,92.9,47,70.6,49.9,59.6,67.1,66.6,34.8,
CCCCCC(/C=N/N)C(O)(C(F)(F)F)C(F)(F)F (stereo unspecified),> 10,> 10,6.09,7.3,7.12,> 10,8.63,> 10,> 10,7.43,> 10,9.63,> 10,> 10,
CCCCOC(=O)C1CN2C(=NC1(C(F)(F)F)C(F)(F)F)Sc1ccccc12 (stereo unspecified),> 100,> 100,> 100,> 100,> 100,> 100,> 100,> 100,> 100,> 100,> 100,> 100,> 100,> 100,
CC1(C)OC(=S)N(c2ccccc2)C12C=Cc1cc3ccccc3cc1O2 (stereo unspecified),> 100,> 100,> 100,> 100,> 100,> 100,> 100,> 100,> 100,> 100,> 100,> 100,> 100,> 100,
COC(Cc1ccccc1)NC(C)=O (stereo unspecified),> 100,> 100,> 100,> 100,> 100,> 100,> 100,> 100,> 100,> 100,> 100,> 100,> 100,> 100,
CC1(C)CC[C@]2(C(=O)O)CC[C@]3(C)C(=CC[C@@H]4[C@@]5(C)CC[C@H](OC6OC(CO)C(O)C(O)C6OC6OC(CO)C(O)C(O)C6O)C(C)(C)[C@@H]5CC[C@]43C)[C@@H]2C1 (stereo partly specified),30.1,46.5,31.4,35.4,51.9,31.2,34.7,30.5,62.3,28.9,32.8,36.3,44.8,34.2,
C=C(C(=O)O)[C@@H]1C[C@@H]2O[C@H]1CC(C)=CCC/C(C)=C/CC[C@@]2(C)O,> 100,> 100,> 100,> 100,> 100,> 100,> 100,> 100,> 100,> 100,> 100,> 100,> 100,> 100,
COC(=O)c1scc(N)c1-n1ccc(=O)[nH]c1=O,> 100,> 100,> 100,> 100,> 100,> 100,> 100,> 100,> 100,> 100,> 100,> 100,> 100,> 100,
N=c1oc2c(Cl)cc(Cl)cc2cc1C(=O)Nc1ccccn1,> 100,> 100,> 100,> 100,48.4,> 100,> 100,> 100,60.8,> 100,> 100,46.1,> 100,61.4,
CCOC1SC(SC)=NN1C(=O)C(OC(C)=O)C(OC(C)=O)C(OC(C)=O)C(OC(C)=O)C(=O)N1N=C(SC)SC1OCC (stereo unspecified),> 100,> 100,> 100,> 100,96.2,> 100,> 100,> 100,> 100,> 100,> 100,> 100,> 100,> 100,
Cc1c2cccc-2c(OCCO)cc2c1[nH]c1ccccc12,7.14,> 29.6,> 50.1,5.18,> 49.6,4.36,21,13.5,8.52,20.6,18.6,3.95,24.2,8.71,
CC1(C)C2CCC1(CC(=O)O)C(Cl)C2 (stereo unspecified),> 100,> 100,> 100,> 100,> 100,> 100,> 100,> 100,> 100,> 100,> 100,> 100,> 100,> 100,
